Laboratory results reported in patent publication US11020451B2, “Methods for treating fibrotic cancers” (Promedior, Inc., priority 2013, dated 2021).

Tests used:
Format in all cases: in vivo, human
[1] = tested on: myelofibrosis (MF) patients; experiment: MPN-SAF Total Symptom Score and IWG-MRT symptom response, same study; conditions: for number of patients with measurable symptom response (TSS reduction): alone; for MPN-SAF TSS response: patient 101-005 (Cohort 1), 24-30 weeks of monotherapy
Method: (§1) Recombinant human SAP, in this case the recombinant human SAP known as PRM-151, was administered to myelofibrosis (MF) patients, alone and in combination with ruxolitinib (RUX), to evaluate safety and efficacy in treating bone marrow fibrosis (BMF). Patients with Intermediate-1, Intermediate-2, or high risk MF with grade ≥2 BMF, either not receiving therapy or on a stable dose of RUX, were eligible for this study.
(§2) Twenty-seven patients were assigned to one of four cohorts based on administration of PRM-151 as a monotherapy or as part of a combination therapy. Cohort 1: i) patients who received no treatment for MF in at least two weeks, ii) were administered an initial loading dose of SAP at 10 mg/kg by intravenous infusion (˜1 hour infusion) on days 1, 3, and 5, and iii) thereafter were administered a dose of SAP every four weeks at 10 mg/kg by intravenous infusion (˜1 hour infusion). Cohort 2: i) patients who received no treatment for MF in at least two weeks, ii) were administered an initial loading dose of SAP at 10 mg/kg by intravenous infusion (˜1 hour infusion) on days 1, 3, and 5, and iii) thereafter were administered a dose of SAP every week at 10 mg/kg by intravenous infusion (˜1 hour infusion). Cohort 3: i) patients on a stable dose (e.g., on ruxolitinib for at least 3 months without any dose modifications) of ruxolitinib for at least 12 weeks with no improvement in spleen during the last four weeks, ii) were administered an initial loading dose of SAP at 10 mg/kg by intravenous infusion (˜1 hour infusion) on days 1, 3, and 5 iii) thereafter were administered a dose of SAP every week at 10 mg/kg by intravenous infusion (˜1 hour infusion), and iv) were administered RUX orally at the dose at which they entered the study. Cohort 4: i) patients on a stable dose (e.g., on ruxolitinib for at least 3 months without any dose modifications) of ruxolitinib for at least 12 weeks with no improvement in spleen during the last four weeks, ii) were administered an initial loading dose of SAP at 10 mg/kg by intravenous infusion (˜1 hour infusion) on days 1, 3, and 5 iii) thereafter were administered a dose of SAP every four weeks at 10 mg/kg by intravenous infusion (˜1 hour infusion), and iv) were administered RUX orally at the dose at which they entered the study.
(§3) Patients in each cohort were monitored for improvements in BMF and other MF-related complications including, for example, abnormal blood cell parameters, splenomegaly, and symptoms as assessed by the MPN-SAF. In particular, patients were monitored for overall response rate according to the International Working Group consensus criteria for treatment response in myelofibrosis with myeloid metaplasia (Tefferi A, Cervantes F, Mesa R, et al. Revised response criteria for myelofibrosis: International Working Group-Myeloproliferative Neoplasms Research and Treatment (IWG-MRT) and European LeukemiaNet (ELN) consensus report. Blood. 2013; 122:1395-1398). Patients were also monitored for incidence of adverse events, changes in bone marrow fibrosis according to the European Consensus of Grading Bone Marrow Fibrosis (Thiele J, Kvasnicka H M, Facchetti F, et al. European consensus on grading bone marrow fibrosis and assessment of cellularity. Haematologica 2005; 90:1128-1132.), changes in the modified Myeloproliferative Neoplasma Symptom Assessment Form (MPN-SAF) Score (Emanuel et al. 2012, Journal of Clinical Oncology 30(33): 4098-4103), as well as pharmacokinetic parameters including, for example, maximum drug concentration (Cmax), time to maximum concentration (Tmax), area under the curve (AUC), clearance, and volume of distribution.
(§4) Clinical response assessment, including assessment of spleen size, MPN-SAF, and CBC, was carried out every 4 weeks. BM biopsies were carried out at baseline, 12 weeks, and 24 weeks. The IWG-MRT symptom and bone marrow responses observed at 24 weeks of this study are summarized below in Table 3. […]

[2] = tested on: myelofibrosis (MF) patients; experiment: Adverse events, tolerability and myelosuppression, Stage 1 study of PRM-151 alone and with ruxolitinib; conditions: for safety and tolerability: MF patients, alone and in combination with RUX; for treatment-related myelosuppression: after 24 weeks of therapy, all four cohorts
Method: as §1, §2, §3
The numbers indicated in each column below the grade indicate the number of patients in which the adverse event was reported.

[3] = tested on: myelofibrosis (MF) patients; experiment: Spleen size / spleen response, same study; conditions: for number of patients with measurable decrease in spleen size: alone; for spleen size response: patient 101-005 (Cohort 1), 24-30 weeks of monotherapy
Method: as §1, §2, §3, §4

[4] = tested on: myelofibrosis (MF) patients; experiment: Hemoglobin, platelets (CBC) and red blood cell transfusions, same study; conditions: for hemoglobin response / platelet response: patient 101-005 (Cohort 1), 24-30 weeks of monotherapy
Method: as §1, §2, §3, §4

[5] = tested on: myelofibrosis (MF) patients; experiment: Bone marrow fibrosis grade (European Consensus) and bone marrow response, same study; conditions: for number of patients with decrease in bone marrow fibrosis by ≥1 grade: all treatment arms, at 12 or 24 weeks or both; for bone marrow fibrosis grade change: after 12 weeks
Method: as §1, §2, §3
Bone marrow biopsies were obtained at baseline and after three months of therapy and were reviewed. […] As detailed below, these improvements in BMF have borne out upon further analysis of the data across further treatment periods.
Clinical response assessment, including assessment of spleen size, MPN-SAF, and CBC, was carried out every 4 weeks. […]

[6] = Cohort 1: 10 mg/kg IV Q4W alone, 24 weeks
[7] = Cohort 2: 10 mg/kg IV QW alone, 24 weeks
[8] = a number of patients in all 4 treatment arms

PRM-151: recombinant human SAP (serum amyloid P, pentraxin-2), α2,3-sialic acid-containing, expressed in CHO cells
symptom response ≥8 weeks, number ([1]; Cohort 1: Q4W alone, 24 weeks): 1 symptom response ≥8 weeks
number of patients with measurable symptom response (TSS reduction) ([1]; Cohort 1: every 4 weeks): 4
confirmed symptom responses (≥12 weeks), number ([1]; Cohort 2: QW alone, 24 weeks): 2 confirmed symptom responses (≥12 weeks)
symptom response ≥8 weeks, number ([1]; Cohort 2: QW alone, 24 weeks): 1 symptom response ≥8 weeks
number of patients with measurable symptom response (TSS reduction) ([1]; Cohort 2: weekly): 1
additional subjects with 50% decrease in symptom score lasting ≥8 weeks ([1]; less than 50% on Cycle 6 Day 29): Two
number of patients with reduction in MPN-SAF TSS compared to baseline ([1]; of 18 evaluated patients followed to C6D29 or beyond, all four arms): 10
number of patients with ≥50% reduction in Total Symptom Score ([1]; on Cycle 6 Day 29, all arms): 5
MPN-SAF TSS response [1]: decrease
MPN-SAF TSS response ([1]; listed as rhSAP): reduction
Abdominal pain Gr 3, number of patients [2, 6]: 1
Fatigue Gr 2, number of patients [2, 6]: 2
Neuropathy Peripheral Gr 2, number of patients [2, 6]: 1
Abdominal pain Gr 3, number of patients [2, 7]: 1
Alanine aminotransferase increased Gr 2, number of patients [2, 7]: 1
safety and tolerability ([2]; listed as SAP): good tolerability
safety and tolerability ([2]; listed as rhSAP): safe and well tolerated
treatment-related myelosuppression [2]: no apparent treatment-related myelosuppression
treatment-related myelosuppression ([2]; listed as rhSAP): no evidence of clinically significant myelosuppression
number of patients with measurable decrease in spleen size ([3]; Cohort 1: every 4 weeks): 3
spleen response ≥8 weeks, number ([3]; Cohort 2: QW alone, 24 weeks): 1 spleen response ≥8 weeks
number of patients with measurable decrease in spleen size ([3]; Cohort 2: weekly): 2
number of patients with ≥20% reduction in spleen volume ([3]; all treatment arms, 24 weeks): five
number of patients with reduction in spleen size compared to baseline ([3]; of 13 evaluated patients with palpable spleen followed to C6D29 or beyond, all four arms): 10
reduction in spleen volume ([3]; one patient, Cohort 2 (weekly, alone), lasting 8 weeks): 50%
spleen size response [3]: decrease
spleen size response ([3]; listed as rhSAP): reduction
hemoglobin levels [4, 8]: Improvement
platelet levels [4, 8]: Improvement
red blood cell transfusions [4, 8]: decrease
hemoglobin response [4]: increase
platelet response [4]: increase
hemoglobin response ([4]; listed as rhSAP): improvement
platelet response ([4]; listed as rhSAP): improvement
bone marrow responses, number ([5]; Cohort 1: Q4W alone, 24 weeks): 2 bone marrow responses
bone marrow responses, number ([5]; Cohort 1: Q4W alone, 24 weeks, listed as recombinant human SAP): 2
bone marrow responses, number ([5]; Cohort 2: QW alone, 24 weeks): 1 bone marrow response
number of patients with decrease in bone marrow fibrosis by ≥1 grade [5]: 5
number of patients with decrease in bone marrow fibrosis by ≥1 grade ([5]; listed as recombinant human SAP): five
bone marrow responses, number ([5]; in 10 additional patients evaluated at 36 weeks, alone or in combination): 3
number of subjects with improvement in BMF ([5]; of 27 subjects examined, biopsies at baseline and after three months, all cohorts): 5
bone marrow fibrosis grade change ([5]; one Cohort 1 patient (every four weeks, alone)): Grade 2 to Grade 0
bone marrow fibrosis grade change ([5]; one Cohort 2 patient (weekly, alone)): Grade 3 to Grade 2
bone marrow fibrosis grade change (reticulin staining) ([5]; patient 101-005 (Cohort 1), 12 weeks / three months): Grade 2 to Grade 0
bone marrow fibrosis grade change (reticulin staining) ([5]; patient 108-003 (Cohort 4), six months): Grade 2 to Grade 1
bone marrow fibrosis grade change (reticulin staining) ([5]; patient 108-003 (Cohort 4), three months): Grade 3 to Grade 2
durability of response ([5]; patients responsive at the 12- or 24-week mark, following 36 weeks of treatment): continued to respond
